According to patent US20100183597A1, “DRAK2 EXPRESSION IS ASSOCIATED WITH DIABETES” (priority 2007, published 2010):

Assays:
Drak2 = Drak2 protein levels in siRNA-transfected NIT-1 insulinoma cells by flow cytometry; assay type: cell-based, mouse; conditions: NIT-1 cells; for Drak2 protein upregulation stimulated by FFA: siRNA transfected, cultured 24 h with FFA, intracellular Drak2 by flow cytometry (FIG. 2A); for Drak2 protein upregulation stimulated by cytokines: 24 h (FIG. 10B)
Text: (§1) Drak2 Tg and WT islets were digested with 0.05% trypsin-EDTA to obtain single cell suspensions. The cells were fixed with 4% paraformaldehyde and permeabilized with 0.2% Triton X-100. They were stained with rabbit anti-Drak2 Ab (Abgent, San Diego, Calif.; 1:50 dilution) and anti-insulin mAb (Sigma, St. Louis, Mo.; 1:500 dilution). Subsequently, they were stained with FITC-conjugated sheep anti-rabbit antibody (Chemicon, Temecula, Calif.), and PE-conjugated goat anti-mouse antibody (Jackson Immunoresearch, West Grove, Pa.), and analyzed by 2-color flow cytometry. Dispersed islet cells or small interfering RNA (siRNA)-transfected NIT-1 cells were also analyzed for apoptosis by flow cytometry using FITC-annexin V staining (Murakami et al., 2004).
(§2) NIT-1 cells, derived from mouse insulinoma, were transfected with siRNA using Lipofectamine 2000 (Invitrogen, Burlington, Ontario) according to the manufacturer's instructions. For Drak2 siRNA, the oligonucleotide RNA sequences were CAUCCCUGAAGAUGGCAGCtt and GCUGCCAUCUUCAGGGAUGtt. The control was the scrambled sequence of said siRNA with following sequences: 5′CCCUAAGUGUAGGACGCACtt and 3′GUGCGUCCUACACUUAGGGtt. Single stranded RNA pairs were annealed by being incubated for 1 min at 900 C, and then cooled down to room temperature over 45 min. The final concentration of double-stranded siRNA was 20 μM for transfection.
(§3) Dispersed islet cells were fixed with 4% paraformaldehyde and permeabilized with 0.2% Triton X-100. For Drak2 and insulin detection, the cells were stained as described for confocal microscopy, and analyzed by 2-color flow cytometry. Dispersed islet cells or small interfering RNA (siRNA)-transfected NIT-1 cells were also analyzed for apoptosis by flow cytometry with FITC-annexin V staining (Murakami et al., 2004)).
(§4) NIT-1 cells, derived from mouse insulinoma, were transfected with siRNA using Lipofectamine 2000 (Invitrogen, Burlington, Ontario) according to the manufacturer's instructions. Two siRNAs specific for Drak2 were employed. For Drak2 siRNA #1162, the oligonucleotide RNA sequences were CAUCCCUGAAGAUGGCAGCtt and GCUGCCAUCUUCAGGGAUGtt. For Drak2 siRNA #592, the oligonucleotide RNA sequences were UAACAUUGUUCACCUUGAUtt and AUCAAGGUGAACAAUGUUAtt. The control siRNA was the scrambled sequence of siRNA #1162 with the following sequences: 5′CCCUAAGUGUAGGACGCACtt and 3′GUGCGUCCUACACUUAGGGtt. Single-stranded RNA pairs were annealed by incubation for 1 min at 900 C, and then cooled down to room temperature over 45 min. The final concentration of double-stranded siRNA was 10 nM for transfection.

NIT-1 cells = assay: Apoptosis of NIT-1 cells by annexin V staining and flow cytometry; assay type: cell-based, mouse; conditions: for FFA-induced apoptosis (annexin V): cultured 24 h with FFA (FIG. 2B)
Text: as §1, §2, §3, §4
NIT-1 cells were treated with IFN-g+IL-1b for 72 hours, with or without […] rapamycin. Drak2 siRNA were transfected to some cells at 24 hour, the apoptosis of cells were measured with Annexin-v staining.

p70S6 kinase = p70S6 kinase phosphorylation in NIT-1 cell lysates by immunoblotting; assay type: cell-based, mouse; conditions: NIT-1 cells, IFN-γ plus IL-1β or TNF-α plus IL-1β, siRNA transfected after 24 h, immunoblot after additional 24 h (FIG. 15B, 15C)
Description: NIT-1 cells were transiently transfected with pCEP4-HA-Drak2 or empty vector pCEP4-HA. After 48 h, the cells were lysed and resolved in 10% SDS-PAGE (60 μg/lane) followed by immunoblotting. For HA-Drak2 expression, membrane was blotted with mouse anti-HA mAb (Santa Cruz, Santa Cruz, Calif.; 1:1000 dilution) followed by horse radish peroxidase (HRP)-conjugated sheep anti-mouse IgG (GE Health; 1:2000 dilution). To assess p70S6 kinase phosphorylation, the membrane was blotted with mouse anti-phospho-p70S6 kinase (Thr389) Ab (Cell Signaling, Danvers, Mass.; 1:1000 dilution) followed by HRP-conjugated sheep anti-mouse IgG (GE Health; 1:2000 dilution). The membrane was also blotted with rabbit anti-p70S6 kinase Ab (Cell Signaling, Danvers, Mass.; 1:1000 dilution) followed by HRP-conjugated donkey anti-rabbit IgG to show similar total p70S6 kinase protein. In some experiments, NIT-1 cells were stimulated with IFN-γ (1000 U/ml) plus IL-1β (0.5 ng/ml), or TNF-α (200 ng/ml) plus IL-1β (0.5 ng/ml). Twenty four hours later, they were transfected with two different Drak2 siRNAs (#592 and #1162), or with a control siRNA. After additional 24 hour, phospho-p70S6 kinase and total p70S6 kinase in the cell lysates were detected by immunoblotting as described above.

human islets = assay: Inflammatory cytokine-induced apoptosis of human islets, annexin V flow cytometry; assay type: cell-based; conditions: TNF-a, IFN-g and IL1-b, 72 h (FIG. 19)
Description: FIG. 19—Drak2 siRNA (designed based on the mouse Drak2 sequence) effectively protects human islets from inflammatory cytokine-induced apoptosis. Human islets were treated with cytokines (IFN-γ (1000 U/ml), IL-1β (0.5 ng/ml), TNF-α (200 ng/ml), 24 h later, they were transfected with a combination of 2 Drak2 siRNA (#592 and #1162, 10 nM each). At 72 h, the islets were harvested, dispersed and tested for annexin V expression by flow cytometry. The percentage of apoptotic cells (annexin V positive) is shown.
as §3

[1] = IFN-γ plus IL-1β or TNF-α plus IL-1β

Row | Substance | Drak2 protein upregulation stimulated by FFA (Drak2) | FFA-induced apoptosis (annexin V) (NIT-1 cells; siRNA transfected) | cytokine-induced p70S6 kinase phosphorylation (phospho versus total p70S6 kinase) (p70S6 kinase) | Drak2 protein upregulation stimulated by cytokines (Drak2; [1]) | apoptosis induced by IFN-γ+IL-1β (annexin V) (NIT-1 cells; 72 h, rapamycin 250 nM, Drak2 siRNA transfected at 24 h, alone or combined (FIG. 18)) | cytokine-induced apoptosis (annexin V) (NIT-1 cells; siRNA transfected, IFN-γ plus IL-1β or TNF-α plus IL-1β, 24 h (FIG. 10C)) | cytokine-induced Drak2 protein expression (Drak2; IFN-γ plus IL-1β or TNF-α plus IL-1β, siRNA transfected after 24 h, assayed at 48 h (FIG. 15A)) | effect on cytokine-induced apoptosis of human islets (human islets)
1 | #592: Drak2 siRNA; oligonucleotide RNA sequences UAACAUUGUUCACCUUGAUtt and AUCAAGGUGAACAAUGUUAtt (SEQ ID Nos:7 and 8) (chain 1 UAACAUUGUUCACCUUGAUTT; chain 2 AUCAAGGUGAACAAUGUUATT; chemistry not fully specified) | inhibited Drak2 protein upregulation | prevented FFA-induced apoptosis | inhibited p70S6 kinase phosphorylation |  |  |  |  | 
2 | #1162: Drak2 siRNA; oligonucleotide RNA sequences CAUCCCUGAAGAUGGCAGCtt and GCUGCCAUCUUCAGGGAUGtt (SEQ ID Nos: 5 and 6) | inhibited Drak2 protein upregulation | prevented FFA-induced apoptosis | inhibited p70S6 kinase phosphorylation | prevented Drak2 protein upregulation |  |  |  | 
3 | Drak2 siRNA: Drak2 siRNA without number; Example 4 sequences CAUCCCUGAAGAUGGCAGCtt and GCUGCCAUCUUCAGGGAUGtt, the same as #1162 (GCUGCCAUCUUCAGGGAUGTT; RNA strands with 3' tt overhangs, overhang chemistry not given here, further chemistry not given here) |  |  |  |  | reduce apoptosis | dampened |  | 
4 | control siRNA: scrambled sequence of siRNA #1162: 5′CCCUAAGUGUAGGACGCACtt and 3′GUGCGUCCUACACUUAGGGtt (SEQ ID Nos: 9 and 10) (chain 1 CCCUAAGUGUAGGACGCACTT; chain 2 GUGCGUCCUACACUUAGGGTT; RNA strands with 3' tt overhangs, overhang chemistry not given here, further chemistry not given here) [reference compound] | no effect |  | no effect | no effect |  |  | no effect | no effect
